According to ChEMBL document CHEMBL2177079, “Free-Wilson and structural approaches to co-optimizing human and rodent isoform potency for 11β-hydroxysteroid dehydrogenase type 1 (11β-HSD1) inhibitors” (J Med Chem, 2012):
pIC50: −log10 of the molar value. Calls of active or inactive are those of the source. The calls are words filed in the database; no cut-off is given here.

Experiments:
[1] = molecular target: 11-beta-hydroxysteroid dehydrogenase 1 (Mus musculus, UniProt P50172); test: Inhibition of mouse 11beta-HSD1 by HTRF assay
Chain of 11-beta-hydroxysteroid dehydrogenase 1 (Mus musculus, UniProt P50172) (P50172 whole entry): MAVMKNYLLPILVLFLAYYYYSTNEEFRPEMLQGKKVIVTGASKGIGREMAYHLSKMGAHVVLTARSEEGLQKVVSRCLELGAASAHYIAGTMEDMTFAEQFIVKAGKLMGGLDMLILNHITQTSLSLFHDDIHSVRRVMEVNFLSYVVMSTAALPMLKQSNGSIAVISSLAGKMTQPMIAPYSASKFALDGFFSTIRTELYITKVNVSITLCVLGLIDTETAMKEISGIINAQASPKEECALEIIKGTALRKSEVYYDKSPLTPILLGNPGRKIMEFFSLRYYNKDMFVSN

[2] = Lipophilicity, log D at pH 7.4; assay type: physicochemical; details: buffer
Rattus norvegicus [3] = test: (§1) Oral bioavailability in Han Wistar rat at 7.4 to 14.7 umol/kg; assay type: ADME, organism-based; details: in vivo
[4] = Half life in male beagle dog at 0.6 umol/kg, iv; assay type: ADME, organism-based, Canis lupus familiaris; details: in vivo
[5] = AUC in mouse at 11.7 umol/kg, po; assay type: ADME, organism-based, Plasma; details: whole blood
[6] = Clearance in Han Wistar rat at 4.7 umol/kg, iv; assay type: ADME, organism-based; details: in vivo
[7] = Intrinsic clearance in Han Wistar rat hepatocytes measured per 10^6 cells; assay type: ADME, cell-based, Hepatocyte; details: read-out: CLH
[8] = molecular target: Corticosteroid 11-beta-dehydrogenase isozyme 1 (Mus musculus) (UniProt P50172); test: Inhibition of 11beta-HSD1 in po dosed mouse liver assessed as target engagement; design: scale not given: the % may be the effect or the level left
[9] = Half life in female beagle dog at 0.6 umol/kg, iv; assay type: ADME, organism-based, Canis lupus familiaris; details: in vivo
[10] = Fraction unbound in Han Wistar rat plasma; assay type: ADME, cell-free
Mus musculus [11] = test: Reduction in fasting plasma glucose levels in obese mouse at 50 mg/kg/day, po; assay type: functional, organism-based
[12] = molecular target: T1, 11-beta-hydroxysteroid dehydrogenase 1 (Homo sapiens, UniProt P28845); test: Inhibition of human 11beta-HSD1 by HPLC assay
T1 sequence (P28845 whole entry): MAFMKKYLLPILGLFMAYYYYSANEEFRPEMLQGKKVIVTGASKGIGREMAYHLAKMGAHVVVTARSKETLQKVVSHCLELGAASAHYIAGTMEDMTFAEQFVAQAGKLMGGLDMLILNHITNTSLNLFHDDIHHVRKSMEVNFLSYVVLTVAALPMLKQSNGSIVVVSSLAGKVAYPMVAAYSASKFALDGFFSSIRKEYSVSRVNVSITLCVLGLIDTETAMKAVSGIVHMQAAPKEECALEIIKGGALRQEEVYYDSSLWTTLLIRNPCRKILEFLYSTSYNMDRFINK

[13] = Volume of distribution at steady state in mouse at 4.7 umol/kg, iv; assay type: ADME, organism-based; details: in vivo, read-out: Vdss
[14] = Clearance in male beagle dog at 0.6 umol/kg, iv; assay type: ADME, organism-based, Canis lupus familiaris; details: in vivo
[15] = Clearance in mouse at 4.7 umol/kg, iv; assay type: ADME, organism-based; details: in vivo
[16] = AUC in male beagle dog at 1.2 umol/kg, po; assay type: ADME, organism-based, Canis lupus familiaris; details: plasma
[17] = molecular target: T2, 11-beta-hydroxysteroid dehydrogenase type 2 (Homo sapiens, UniProt P80365); test: Inhibition of human 11beta-HSD2 by HTRF assay
T2 sequence (P80365 whole entry): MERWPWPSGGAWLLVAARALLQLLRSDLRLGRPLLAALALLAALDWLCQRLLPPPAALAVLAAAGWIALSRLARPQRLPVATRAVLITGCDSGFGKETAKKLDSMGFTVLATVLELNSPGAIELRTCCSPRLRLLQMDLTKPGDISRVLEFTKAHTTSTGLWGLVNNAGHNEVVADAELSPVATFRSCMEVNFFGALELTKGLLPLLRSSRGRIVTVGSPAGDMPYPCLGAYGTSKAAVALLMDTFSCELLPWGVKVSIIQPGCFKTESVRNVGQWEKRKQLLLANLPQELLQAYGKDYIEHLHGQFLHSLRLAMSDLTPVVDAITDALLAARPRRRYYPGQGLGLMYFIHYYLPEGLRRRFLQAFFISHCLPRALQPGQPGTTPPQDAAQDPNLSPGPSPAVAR

[18] = Volume of distribution at steady state in Han Wistar rat at 4.7 umol/kg, iv; assay type: ADME, organism-based; details: in vivo, read-out: Vdss
[19] = Intrinsic clearance in human hepatocytes measured per 10^6 cells; assay type: ADME, cell-based, Hepatocyte; details: read-out: CLH
Mus musculus [20] = test: Reduction in body weight in obese mouse at 300 mg/kg/day, po; assay type: functional, organism-based
[21] = Volume of distribution at steady state in female beagle dog at 0.6 umol/kg, iv; assay type: ADME, organism-based, Canis lupus familiaris; details: in vivo, read-out: Vdss
[22] = Oral bioavailability in male beagle dog at 1.2 umol/kg; assay type: ADME, organism-based, Canis lupus familiaris; details: in vivo
[23] = Half life in Han Wistar rat at 4.7 umol/kg, iv; assay type: ADME, organism-based; details: in vivo
[24] = molecular target: T3, 17-beta-hydroxysteroid dehydrogenase type 1 (Homo sapiens, UniProt P14061); test: Inhibition of human 17beta-HSD1 by HPLC assay
T3 sequence (P14061 whole entry): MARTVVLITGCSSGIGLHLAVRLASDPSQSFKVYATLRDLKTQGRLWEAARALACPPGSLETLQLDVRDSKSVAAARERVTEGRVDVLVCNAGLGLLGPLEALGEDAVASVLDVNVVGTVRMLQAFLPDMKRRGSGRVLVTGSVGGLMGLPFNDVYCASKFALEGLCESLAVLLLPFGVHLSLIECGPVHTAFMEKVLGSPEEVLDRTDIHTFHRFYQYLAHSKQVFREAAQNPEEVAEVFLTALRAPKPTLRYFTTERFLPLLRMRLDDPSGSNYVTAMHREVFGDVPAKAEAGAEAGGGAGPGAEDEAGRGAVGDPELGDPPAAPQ

[25] = Intrinsic clearance in female beagle dog hepatocytes measured per 10^6 cells; assay type: ADME, cell-based, Canis lupus familiaris, Hepatocyte; details: read-out: CLH
[26] = Fraction unbound in female beagle dog plasma; assay type: ADME, cell-free, Canis lupus familiaris
[27] = Oral bioavailability in mouse at 11.7 umol/kg; assay type: ADME, organism-based; details: in vivo
Mus musculus [28] = test: Reduction in body weight in obese mouse at 50 mg/kg/day, po; assay type: functional, organism-based
[29] = Fraction unbound in male beagle dog plasma; assay type: ADME, cell-free, Canis lupus familiaris
[30] = Volume of distribution at steady state in male beagle dog at 0.6 umol/kg, iv; assay type: ADME, organism-based, Canis lupus familiaris; details: in vivo, read-out: Vdss
[31] = Oral bioavailability in female beagle dog at 1.2 umol/kg; assay type: ADME, organism-based, Canis lupus familiaris; details: in vivo
[32] = Clearance in female beagle dog at 0.6 umol/kg, iv; assay type: ADME, organism-based, Canis lupus familiaris; details: in vivo
[33] = Intrinsic clearance in mouse hepatocytes measured per 10^6 cells; assay type: ADME, cell-based, Hepatocyte; details: read-out: CLH
[34] = molecular target: T4, 17-beta-hydroxysteroid dehydrogenase type 3 (Homo sapiens) (UniProt P37058); test: Inhibition of human 17beta-HSD3 at 10 uM by HPLC assay
T4 sequence (whole entry): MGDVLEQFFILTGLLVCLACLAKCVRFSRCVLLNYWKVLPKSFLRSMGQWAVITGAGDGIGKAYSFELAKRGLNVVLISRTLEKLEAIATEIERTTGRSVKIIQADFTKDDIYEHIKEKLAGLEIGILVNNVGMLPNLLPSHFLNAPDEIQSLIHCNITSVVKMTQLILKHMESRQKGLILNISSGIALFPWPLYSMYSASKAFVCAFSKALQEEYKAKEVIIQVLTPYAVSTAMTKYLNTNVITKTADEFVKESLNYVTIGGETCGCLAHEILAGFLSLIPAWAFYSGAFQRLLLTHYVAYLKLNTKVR

Mus musculus [35] = test: Reduction in fasting plasma glucose levels in obese mouse at 300 mg/kg/day, po; assay type: functional, organism-based
[36] = Intrinsic clearance in male beagle dog hepatocytes measured per 10^6 cells; assay type: ADME, cell-based, Canis lupus familiaris, Hepatocyte; details: read-out: CLH
[37] = AUC in Han Wistar rat at 7 umol/kg, po; assay type: ADME, organism-based, Plasma; details: whole blood
Mus musculus [38] = test: Inhibition of 11beta-HSD1 in po dosed C57 mouse epididymal adipose tissue assessed as conversion of [3H]cortisone to [3H]cortisol; assay type: functional, organism-based
[39] = Oral bioavailability in Han Wistar rat at 7 umol/kg; assay type: ADME, organism-based; details: in vivo
[40] = Half life in mouse at 4.7 umol/kg, iv; assay type: ADME, organism-based; details: in vivo
[41] = as §1; assay type: ADME, organism-based; details: Han Wistar, in vivo
[42] = molecular target: T1, 11-beta-hydroxysteroid dehydrogenase 1; test: Inhibition of human 11beta-HSD1 by HTRF assay
[43] = Fraction unbound in mouse plasma; assay type: ADME, cell-free
[44] = Fraction unbound in human plasma; assay type: ADME, cell-free
[45] = AUC in female beagle dog at 1.2 umol/kg, po; assay type: ADME, organism-based, Canis lupus familiaris; details: plasma
[46] = Half life in male beagle dog at 1 umol/kg, iv; assay type: ADME, organism-based, Canis lupus familiaris; details: in vivo
[47] = AUC in Han Wistar rat at 11.7 umol/kg, po; assay type: ADME, organism-based; details: plasma
[48] = Volume of distribution at steady state in female beagle dog at 1 umol/kg, iv; assay type: ADME, organism-based, Canis lupus familiaris; details: in vivo, read-out: Vdss
[49] = Volume of distribution at steady state in male beagle dog at 1 umol/kg, iv; assay type: ADME, organism-based, Canis lupus familiaris; details: in vivo, read-out: Vdss
Rattus norvegicus [50] = test: Inhibition of 11beta-HSD1 in po dosed Han Wistar rat epididymal adipose tissue assessed as conversion of [3H]cortisone to [3H]cortisol; assay type: functional, organism-based
[51] = Oral bioavailability in Han Wistar rat at 11.7 umol/kg; assay type: ADME, organism-based; details: in vivo
[52] = Clearance in male beagle dog at 1 umol/kg, iv; assay type: ADME, organism-based, Canis lupus familiaris; details: in vivo
[53] = Half life in female beagle dog at 1 umol/kg, iv; assay type: ADME, organism-based, Canis lupus familiaris; details: in vivo
[54] = Clearance in female beagle dog at 1 umol/kg, iv; assay type: ADME, organism-based, Canis lupus familiaris; details: in vivo

`CC(C)(CO)Nc1ncc(C(=O)N[C@H]2C3CC4CC2C[C@](O)(C4)C3)c(OC2CCC2)n1` gave a pIC50 [1] of 7.70, a logD [2] of 3.1 and an F (Rattus norvegicus [3]) of 161%.

`O=C(N[C@H]1C2CC3CC1C[C@](O)(C3)C2)c1cnc(N[C@H]2CCOC2)nc1C1CCCC1` gave a half-life [4] of 36 min, an AUC [5] of 1.5 µM·h and a clearance [6] of 9 mL/min/kg. The hepatocyte CLint [7] was < 2 µL/min/1e6 cells, the Activity [8] was >90% and the half-life [9] was 36 min. For the same molecule, the fraction unbound [10] was 0.35, the Activity (Mus musculus [11]) was “inactive” and the pIC50 [12] was 8.80. It also gave a Vd [13] of 2.4 L/kg, a clearance [14] of 17 mL/min/kg and a clearance [15] of 57 mL/min/kg. The AUC [16] was 0.19 µM·h, the pIC50 [17] was < 4.52 and the Vd [18] was 1 L/kg. For the same molecule, the hepatocyte CLint [19] was < 2 µL/min/1e6 cells, the Activity (Mus musculus [20]) was “Active” and the Vd [21] was 0.6 L/kg. It also gave a bioavailability [22] of 15%, a half-life [23] of 144 min and a pIC50 [1] of 7.49. For the same molecule, the pIC50 [24] was < 4.00, the hepatocyte CLint [25] was 6.7 µL/min/1e6 cells and the fraction unbound [26] was 0.38. For the same molecule, the logD [2] was 2.4, the bioavailability [27] was 34% and the Activity (Mus musculus [28]) was “Active”. It also gave a fraction unbound [29] of 0.38, a Vd [30] of 0.7 L/kg and a bioavailability [31] of 30%. The clearance [32] was 14 mL/min/kg, the hepatocyte CLint [33] was 9.1 µL/min/1e6 cells and the inhibition [34] was 7%. The Activity (Mus musculus [35]) was “Active”, the hepatocyte CLint [36] was 6.7 µL/min/1e6 cells and the AUC [37] was 5.6 µM·h. It also gave a pIC50 (Mus musculus [38]) of 7.30, a bioavailability [39] of 61% and a half-life [40] of 42 min. The bioavailability [41] was 61%, the pIC50 [42] was 7.68 and the fraction unbound [43] was 0.3. For the same molecule, the fraction unbound [44] was 0.38 and the AUC [45] was 0.42 µM·h.

Molecule `O=C(N[C@H]1C2CC3CC1C[C@](O)(C3)C2)c1cnc(NC2CCOCC2)nc1C1CCC1` has an AUC [5] of 2.7 µM·h, a half-life [46] of 48 min and a clearance [6] of 32 mL/min/kg. For the same molecule, the hepatocyte CLint [7] was < 2 µL/min/1e6 cells, the fraction unbound [10] was 0.55 and the AUC [47] was 10.4 µM·h. It also gave a pIC50 [12] of 7.85, a Vd [13] of 1.1 L/kg and a Vd [48] of 1.6 L/kg. The clearance [15] was 42 mL/min/kg, the AUC [16] was 0.38 µM·h and the pIC50 [17] was < 4.52. The Vd [18] was 0.9 L/kg, the hepatocyte CLint [19] was < 2 µL/min/1e6 cells and the bioavailability [22] was 34%. For the same molecule, the half-life [23] was 36 min, the pIC50 [1] was 7.57 and the pIC50 [24] was < 4.46. For the same molecule, the hepatocyte CLint [25] was < 2 µL/min/1e6 cells, the fraction unbound [26] was > 0.66 and the Vd [49] was 1.1 L/kg. It also gave a logD [2] of 2.1, a pIC50 (Rattus norvegicus [50]) of 7.06 and a bioavailability [27] of 57%. The fraction unbound [29] was > 0.66, the bioavailability [31] was 23% and the hepatocyte CLint [33] was 3.6 µL/min/1e6 cells. The inhibition [34] was 4%, the hepatocyte CLint [36] was < 2 µL/min/1e6 cells and the bioavailability [51] was 100%. The pIC50 (Mus musculus [38]) was 7.52, the half-life [40] was 24 min and the bioavailability [41] was 100%. For the same molecule, the pIC50 [42] was 7.55, the fraction unbound [43] was > 0.5 and the clearance [52] was 19 mL/min/kg. For the same molecule, the fraction unbound [44] was 0.52, the half-life [53] was 42 min and the clearance [54] was 29 mL/min/kg. The AUC [45] was 0.16 µM·h.
